Laboratory results published in PubChem BioAssay AID1963843 (Molecular Pharmacology Branch, DTP, NCI, 2024).

System: 616215-338-R-J1-PDC complex spheroid viability
Assay: Anticancer human tumor 616215-338-R-J1-PDC patient-derived colon adenocarcinoma cell line growth inhibition [POLQ]
Details: for IC50: curve of first compound; for viability, T/C: stronger effect = lower value
Summary of the method: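 Growth inhibition in 3D: complex spheroids (tumor PDC, HUVEC, MSC) treated with POLQ inhibitor combinations; where Cmax unknown, highest tested concentration 10 microM, except SN-38 at 1 microM.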

[1] = second compound 0.0316 µM, first compound 0.0316 µM
[2] = second compound 0.0316 µM, first compound 0.1 µM
[3] = second compound 0.0316 µM, first compound 0.316 µM
[4] = second compound 0.0316 µM, first compound 1 µM
[5] = second compound 0.0316 µM, first compound 3.16 µM
[6] = second compound 0.0316 µM, first compound 10 µM
[7] = second compound 0.1 µM, first compound 0.0316 µM
[8] = second compound 0.1 µM, first compound 0.1 µM
[9] = second compound 0.1 µM, first compound 0.316 µM
[10] = second compound 0.1 µM, first compound 1 µM
[11] = second compound 0.1 µM, first compound 3.16 µM
[12] = second compound 0.1 µM, first compound 10 µM
[13] = second compound 0.316 µM, first compound 0.0316 µM
[14] = second compound 0.316 µM, first compound 0.1 µM
[15] = second compound 0.316 µM, first compound 0.316 µM
[16] = second compound 0.316 µM, first compound 1 µM
[17] = second compound 0.316 µM, first compound 3.16 µM
[18] = second compound 0.316 µM, first compound 10 µM
[19] = second compound 1 µM, first compound 0.0316 µM
[20] = second compound 1 µM, first compound 0.1 µM
[21] = second compound 1 µM, first compound 0.316 µM
[22] = second compound 1 µM, first compound 1 µM
[23] = second compound 1 µM, first compound 3.16 µM
[24] = second compound 1 µM, first compound 10 µM
[25] = second compound 3.16 µM, first compound 0.0316 µM
[26] = second compound 3.16 µM, first compound 0.1 µM
[27] = second compound 3.16 µM, first compound 0.316 µM
[28] = second compound 3.16 µM, first compound 1 µM
[29] = second compound 3.16 µM, first compound 3.16 µM
[30] = second compound 3.16 µM, first compound 10 µM
[31] = second compound 10 µM, first compound 0.0316 µM
[32] = second compound 10 µM, first compound 0.1 µM
[33] = second compound 10 µM, first compound 0.316 µM
[34] = second compound 10 µM, first compound 1 µM
[35] = second compound 10 µM, first compound 3.16 µM
[36] = second compound 10 µM, first compound 10 µM
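Also: spheroids exposed to compounds for one week before readout.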
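For viability, T/C in this document: percent viability relative to DMSO vehicle wells taken as 100%.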

## CC1COCCN1c1cc(-c2ccnn2C)c2ccnc(-c3ccn[nH]3)c2n1 (centres undefined) + Cc1cccc(N(C)C(=O)C2C(O)CCN2c2nc(C)cc(C(F)(F)F)c2C#N)c1
Second compound 0.0316 µM
  IC50: > 10 µM
Second compound 0.1 µM
  IC50: > 10 µM
Second compound 0.316 µM
  IC50: > 10 µM
Second compound 1 µM
  IC50: 2.79 µM
Second compound 3.16 µM
  IC50: 1.99 µM
Second compound 10 µM
  IC50: 1.24 µM
[1]
  viability, T/C: 104%
[2]
  viability, T/C: 110%
[3]
  viability, T/C: 76.7%
[4]
  viability, T/C: 66.2%
[5]
  viability, T/C: 49.4%
[6]
  viability, T/C: 50.6%
[7]
  viability, T/C: 103%
[8]
  viability, T/C: 100%
[9]
  viability, T/C: 69.5%
[10]
  viability, T/C: 61.8%
[11]
  viability, T/C: 50.1%
[12]
  viability, T/C: 50.5%
[13]
  viability, T/C: 107%
[14]
  viability, T/C: 91.1%
[15]
  viability, T/C: 66.3%
[16]
  viability, T/C: 57.4%
[17]
  viability, T/C: 52.4%
[18]
  viability, T/C: 53%
[19]
  viability, T/C: 101%
[20]
  viability, T/C: 91%
[21]
  viability, T/C: 71.9%
[22]
  viability, T/C: 57.1%
[23]
  viability, T/C: 53%
[24]
  viability, T/C: 40.8%
[25]
  viability, T/C: 114%
[26]
  viability, T/C: 95.2%
[27]
  viability, T/C: 72.2%
[28]
  viability, T/C: 54%
[29]
  viability, T/C: 44.1%
[30]
  viability, T/C: 47.9%
[31]
  viability, T/C: 111%
[32]
  viability, T/C: 90.6%
[33]
  viability, T/C: 68%
[34]
  viability, T/C: 49.2%
[35]
  viability, T/C: 47.5%
[36]
  viability, T/C: 36.8%

## CC1COCCN1c1cc(C2(S(C)(=N)=O)CC2)nc(-c2ccnc3[nH]ccc23)n1 (centres undefined) + Cc1cccc(N(C)C(=O)C2C(O)CCN2c2nc(C)cc(C(F)(F)F)c2C#N)c1
Second compound 0.0316 µM
  IC50: > 10 µM
Second compound 0.1 µM
  IC50: > 10 µM
Second compound 0.316 µM
  IC50: > 10 µM
Second compound 1 µM
  IC50: > 10 µM
Second compound 3.16 µM
  IC50: > 10 µM
Second compound 10 µM
  IC50: > 10 µM
[1]
  viability, T/C: 88.5%
[2]
  viability, T/C: 104%
[3]
  viability, T/C: 94.8%
[4]
  viability, T/C: 99.7%
[5]
  viability, T/C: 101%
[6]
  viability, T/C: 69.1%
[7]
  viability, T/C: 102%
[8]
  viability, T/C: 95.1%
[9]
  viability, T/C: 101%
[10]
  viability, T/C: 101%
[11]
  viability, T/C: 95.6%
[12]
  viability, T/C: 68.2%
[13]
  viability, T/C: 94.9%
[14]
  viability, T/C: 98.9%
[15]
  viability, T/C: 96.8%
[16]
  viability, T/C: 102%
[17]
  viability, T/C: 89.1%
[18]
  viability, T/C: 62%
[19]
  viability, T/C: 113%
[20]
  viability, T/C: 102%
[21]
  viability, T/C: 98.2%
[22]
  viability, T/C: 101%
[23]
  viability, T/C: 97%
[24]
  viability, T/C: 69.1%
[25]
  viability, T/C: 102%
[26]
  viability, T/C: 96%
[27]
  viability, T/C: 91.5%
[28]
  viability, T/C: 104%
[29]
  viability, T/C: 86.4%
[30]
  viability, T/C: 74.7%
[31]
  viability, T/C: 114%
[32]
  viability, T/C: 111%
[33]
  viability, T/C: 103%
[34]
  viability, T/C: 111%
[35]
  viability, T/C: 95.7%
[36]
  viability, T/C: 71.7%
